Consider one compound from patent US7439266B2, “Malononitrile compound and use thereof” (Sumitomo Chemical Company, Limited, priority 2002, dated 2008).

This assay concerns Aphis gossypii. Put plainly: Test Example 3: spray on cucumber plant, Aphis gossypii. Conditions: 500 ppm, sprayed 20 ml/cup on cucumber plant with about twenty Aphis gossypii; sixth day after the treatment. It counts as in vivo. How it is done: The formulation obtained according to Formulation Example 5 using the present invention compounds (23) was diluted with water so that the active ingredient concentration came to 500 ppm to prepare a pesticidal solution for test.
At the same time, molding Aisai 1 (available from KATAOKA TIKKARIN Co., Ltd.) was put into a 90 ml polyethylene cup, and seeded with cucumber. The plant was grown until the first true leaf was developed, on which about twenty Aphis gossypii were allowed to be parasitic. On the next day, the above pesticidal solution for test was sprayed at a ratio of 20 ml/cup on the cucumber plant. On the sixth day after the application, the number of Aphis gossypii was examined.

For `CC(C)(C)OC(=O)CC(C#N)(C#N)CCF` [present invention compound (23), 2-(tert-butoxycarbonylmethyl)-2-(2-fluoroethyl)malononitrile], the “number of parasitic Aphis gossypii” value was ≤ 3.
